The text below walks through data of PubChem BioAssay (NCI).

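How tested: cells in 96-well plates exposed to compound for 48 hours at five concentrations. GI50 marks 50% less growth. TGI is the concentration that stops growth completely.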

Some test systems named below: SF-539 CNS; A549 NSCLC; SF-268 CNS; MDA-MB-231 breast; OVCAR-4 ovarian; ACHN renal; HOP-62 NSCLC; HL-60(TB) leukemia; SR leukemia; LOX IMVI melanoma; HOP-92 NSCLC.
Holding throughout (assay): DTP human tumour cell line panel, 48 h

In the case of `N#Cc1nc2cc(Cl)ccc2nc1N1CCN(c2ccc([N+](=O)[O-])cc2)CC1`, the TGI with SF-539 CNS, with A549 NSCLC, in the test with SF-268 CNS, in the test on MDA-MB-231 breast, with OVCAR-4 ovarian and with ACHN renal was above 100 µM in each case. Besides, in the test on HOP-62 NSCLC, the TGI was above 100 µM.

In the case of `COc1cc(/C=C2\CC/C(=C\c3cc(OC)c(O)c(OC)c3)C2=O)cc(OC)c1O`, the TGI in the test with SF-539 CNS was above 100 µM; in the test on HL-60(TB) leukemia it was 8.62 µM; in the test on A549 NSCLC, above 62.1 µM; in the test on SF-268 CNS it was 36.5 µM; in the test with MDA-MB-231 breast it was 21.4 µM; in the test with OVCAR-4 ovarian it was 6.05 µM. In addition, the TGI in the test with ACHN renal was 6.58 µM; in the test with SR leukemia it was above 100 µM; in the test with LOX IMVI melanoma, 6.26 µM; in the test with HOP-62 NSCLC, above 100 µM.

As to `CN(Cc1cnc2nc(N)nc(N)c2n1)c1ccc(C(=O)NC23CC4CC(CC(C4)C2)C3)cc1`, the TGI in the test on HL-60(TB) leukemia is above 100 µM; in the test with SF-268 CNS, 22.7 µM; with MDA-MB-231 breast, 39.5 µM; with ACHN renal, 11.5 µM; with SR leukemia, above 100 µM; in the test on LOX IMVI melanoma, 53 µM. The same molecule registered a TGI in the test on HOP-62 NSCLC of 28.2 µM.

Consider `NCCCN(CCCCN(CCCN)C(=O)OCc1ccccc1)C(=O)OCc1ccccc1`, for which the TGI in the test on SF-539 CNS was above 100 µM; in the test with HOP-92 NSCLC it was above 100 µM; with HL-60(TB) leukemia, above 100 µM; in the test on A549 NSCLC, above 100 µM; in the test on SF-268 CNS it was above 100 µM; in the test on MDA-MB-231 breast, 93.7 µM. Also, the TGI in the test on OVCAR-4 ovarian, in the test on ACHN renal, in the test on LOX IMVI melanoma and in the test with HOP-62 NSCLC was above 100 µM each time.

On to `C#CC(O)(c1nc2ccccc2s1)c1nc2ccccc2s1`, for which the TGI is 36.7 µM in the test with SF-539 CNS; 38.2 µM in the test on HOP-92 NSCLC; 46.1 µM in the test with HL-60(TB) leukemia; above 100 µM with A549 NSCLC; above 100 µM in the test with SF-268 CNS; 39.7 µM in the test on MDA-MB-231 breast. The TGI in the test with OVCAR-4 ovarian is above 100 µM; in the test with ACHN renal it was 83.2 µM; in the test with LOX IMVI melanoma, 35.7 µM; with HOP-62 NSCLC, 85.1 µM.

As to `CN1CCN(Cc2c[nH]c3c2C(=O)c2c(c(O)c4ccccc4c2O)C3=O)CC1`, the GI50 in the test on HOP-92 NSCLC is 7.09 µM; with HL-60(TB) leukemia it was 10.3 µM; in the test on A549 NSCLC it was 10.7 µM; in the test with SF-268 CNS, 11.1 µM; in the test with MDA-MB-231 breast, 7.19 µM; with OVCAR-4 ovarian, 21.3 µM. The GI50 in the test with ACHN renal was 11.3 µM; in the test with LOX IMVI melanoma it was 1920 nM. For the same molecule, the total growth inhibition concentration (TGI) in the test on HOP-92 NSCLC worked out at 21.8 µM; with HL-60(TB) leukemia, 70.4 µM; in the test on A549 NSCLC, 25.4 µM; with SF-268 CNS, 23.2 µM; in the test on MDA-MB-231 breast, 19.9 µM; with OVCAR-4 ovarian it was 42.6 µM. In addition, the figures for the TGI in the test on ACHN renal and in the test on LOX IMVI melanoma were 23.5 µM and 3.8 µM, respectively.

As for `CCc1cccc2c3c([nH]c12)-c1ccccc1NC(=O)C3`, the TGI in the test on HOP-92 NSCLC, in the test on HL-60(TB) leukemia, in the test with A549 NSCLC, in the test with SF-268 CNS, with MDA-MB-231 breast and in the test with LOX IMVI melanoma was above 100 µM in each case. The molecule also had a TGI in the test on HOP-62 NSCLC above 100 µM.

On to `ClC(Cl)(Cl)C1CCOC1n1nnc2ccccc21` (stereo not drawn), for which the TGI in the test on SF-539 CNS is above 100 µM; in the test with HL-60(TB) leukemia, 58.2 µM; in the test with A549 NSCLC it was above 100 µM; in the test on SF-268 CNS, above 100 µM; with MDA-MB-231 breast it was above 100 µM; in the test with HOP-62 NSCLC, above 100 µM.

`CC(C(=O)OCc1ccccc1)N(Cc1ccccc1)Cc1ccccc1` (stereo not drawn): the TGI in the test with SF-539 CNS is above 100 µM; in the test with HOP-92 NSCLC, above 100 µM; in the test on HL-60(TB) leukemia, 79.2 µM; in the test on A549 NSCLC, above 100 µM; with SF-268 CNS, above 100 µM; with OVCAR-4 ovarian, above 100 µM. Besides, the TGI in the test on ACHN renal, in the test with SR leukemia and with HOP-62 NSCLC was above 100 µM in each case.

As to `COc1ccccc1OCC(COC(=O)Nc1ccccc1)OC(=O)Nc1ccccc1` (stereo not drawn), the TGI in the test with SF-539 CNS is 33.4 µM; with HOP-92 NSCLC, 28.7 µM; in the test on HL-60(TB) leukemia, above 100 µM; with A549 NSCLC it was above 100 µM; in the test with SF-268 CNS, above 100 µM; with OVCAR-4 ovarian, above 100 µM. In addition, the TGI in the test with ACHN renal, in the test with LOX IMVI melanoma and in the test on HOP-62 NSCLC was above 100 µM throughout.

Consider `COc1ccccc1-n1c(=O)n(C)c(=O)n1C(C)(C)C`, for which the TGI with SF-539 CNS, with HL-60(TB) leukemia, with A549 NSCLC, with SF-268 CNS, in the test on MDA-MB-231 breast and in the test on OVCAR-4 ovarian was above 100 µM in each case. Moreover, the TGI in the test with SR leukemia and in the test on LOX IMVI melanoma was above 100 µM each time.

For the molecule `COC(=O)C1=C(OC(=O)/C(=C/c2ccccc2)c2ccc(OC)cc2)C(C(=O)OC)[C@@]2(O)[C@@H](C(=O)OC)[C@H](C)C[C@@H]1[C@@H]2C(=O)OC` (stereo partly drawn), the TGI with SF-539 CNS is above 100 µM; with HL-60(TB) leukemia, above 100 µM; with A549 NSCLC, above 100 µM; in the test on SF-268 CNS, above 100 µM; with MDA-MB-231 breast, 90.8 µM; with OVCAR-4 ovarian, above 100 µM. The TGI in the test with ACHN renal, in the test with SR leukemia, with LOX IMVI melanoma and with HOP-62 NSCLC was above 100 µM in each case.

Consider `CCOC(=O)c1ccc(Nc2nc3ccccc3nc2-c2cccs2)cc1`, for which the TGI in the test on SF-539 CNS, with HL-60(TB) leukemia, in the test with A549 NSCLC, in the test on SF-268 CNS, in the test on MDA-MB-231 breast and in the test with ACHN renal was above 100 µM in each case. Also, the figures for the TGI in the test on SR leukemia, in the test with LOX IMVI melanoma and with HOP-62 NSCLC were above 100 µM, 74.1 µM and above 100 µM, respectively.

Take `COc1ccc(C2C3=C(N=C4SC(C(C)=O)=C(C)N42)c2ccccc2CC3)cc1` (stereo not drawn): the TGI in the test with SF-539 CNS was above 100 µM; in the test on HOP-92 NSCLC it was above 100 µM; in the test on HL-60(TB) leukemia, 58 µM; in the test with A549 NSCLC it was above 100 µM; in the test on SF-268 CNS, above 100 µM; with MDA-MB-231 breast, above 100 µM. The TGI in the test with OVCAR-4 ovarian, in the test with ACHN renal, in the test on LOX IMVI melanoma and in the test on HOP-62 NSCLC was above 100 µM in each case.

In general, TGI refers to the concentration giving total growth inhibition. A higher TGI goes with lower sensitivity of the cells. As usually defined, the GI50 is the concentration at which growth is held to half of that of the control.
